From paper PMC11200585, “Prospects for Prostate Cancer Chemotherapy: Cytotoxic Evaluation and Mechanistic Insights of Quinolinequinones with ADME/PK Profile” (Biomedicines, 2024)

Legend:
[1] = Log D (experimental, n-octanol); assay type: physicochemical; settings: n-octanol (aqueous phase not stated)
DU-145 cells [2] = assay: Colony formation assay; assay type: cell-based, human; settings: 24 h treatment, 10 days growth
Protocol: DU-145 cells were seeded in 6-well plates at a density of 1000 cells/well and allowed to incubate overnight. Then, the cells were treated with varying concentrations of AQQ1 (1, 2.5, and 5 µM) along with negative control and 2.5 µM DOXO for 24 h. After a medium refreshment, the cells were allowed to grow for 10 days. After incubation, the colonies are fixed with cold methanol for 5 min and then stained with a 0.5% crystal violet solution (prepared in 10% methanol) for 20 min. The plates were allowed to air-dry and the colonies were counted manually.

DU-145 cells [3] = assay: Cell cycle assay (flow cytometry, PI); assay type: cell-based, human; settings: 24 h, highest concentrations
Protocol: Cells were subjected to AQQ1 and DOXO treatments as previously described for apoptosis necrosis analysis. For cell cycle analysis, a cell population of 1 × 10^6 was collected, centrifuged, and the supernatant was removed. The resulting cellular pellet was re-suspended in 70% cold ethanol in PBS. Subsequently, the cells underwent a single PBS wash, followed by incubation in PBS containing […] PI (Sigma-Aldrich, St. Louis, MO, USA) and 2 mg/mL DNase-free RNase-A (Affymetrix, Inc., Santa Barbara, CA, USA) for 30 min at room temperature in a light-protected environment. Analysis was performed using the BD FACS Calibur Flow Cytometry System, and the BD CellQuest Pro Software software (version 5.1, Becton Dickinson, USA) was employed to determine cell cycle phase distributions in comparison to the control group.

DU-145 cells [4] = assay: Scratch assay (cell migration); assay type: cell-based; settings: Homo sapiens, 24 h, read-out: DU-145 cell migration inhibited
Protocol: DU-145 cells were grown in 6-well plates until they reached confluence. A straight-line scratch was then carefully created in the cell layer using a sterile pipette tip. The medium was replaced to remove any detached cells. The cells were treated with varying concentrations of AQQ1 (1, 2.5, and 5 µM) along with negative control for 24 h and the cells were allowed to migrate into the denuded area. The brightfield images were taken under the microscope at 0 h and over 24 h. The extent of wound closure is quantified by measuring the change in the width of the scratch with Fiji Image J wound healing size macro [20].

DU-145 cells [5] = assay: Oxidative stress: intracellular ROS (DCFDA, flow cytometry); assay type: cell-based, human; settings: 1, 2.5, 5 µM, 24 h
Protocol: DU-145 cells were initially seeded at a density of 1 × 10^6 cells per well in 6-well plates. Cells were subjected to AQQ1 treatments as described earlier. After an incubation period, the cells were treated with varying concentrations of AQQ1 (1, 2.5, and 5 µM) for 24 h. ROS analysis was carried out using the DCFDA oxidation method according to Eruslanov and Kusmartsev with some modifications. For positive control, the cells were exposed to 100 µM H2O2 for 30 min. Then, the medium was discarded, 20 µM DCDFA (Sigma-Aldrich, USA) in culture medium was added to the wells, and plates were incubated for 15 min in the dark. The cells were analysed with NovoCyte (Agilent, Palo Alto, CA, USA) flow cytometry using NovoExpress version 1.6.2 software (Agilent, USA).

DU-145 cells [6] = assay: Apoptosis necrosis analysis (Annexin V-FITC / PI flow cytometry); assay type: cell-based, human; settings: 1, 2.5, 5 µM, 24 h
Protocol: To assess cellular apoptosis and necrosis, a fluorochrome-labelled Annexin V (FITC) and Propidium Iodide (PI) staining kit (SONY Biotechnology, San Jose, CA, USA) was used according to the manufacturer’s protocol. DU-145 cells were initially seeded at a density of 1 × 10^6 cells per well in 6-well plates. After an incubation period, the cells were treated with varying concentrations of AQQ1 (1, 2.5, and 5 µM) along with negative control for 24 h. Then, the cells were detached using trypsin and then suspended in 500 µL of 1× Binding Buffer. Subsequently, 3 µL of Propidium Iodide (PI) and 5 µL of Annexin V-FITC were added to the cell suspension, followed by a 15 min incubation at room temperature in the dark. Post-incubation, cell analysis was performed via flow cytometry using the BD FACS Calibur Flow Cytometry System. The percentages of apoptotic and necrotic cells were determined using BD CellQuest Pro Software version 5.1 (both from Becton Dickinson, Sunnyvale, CA, USA).

[7] = In vitro metabolic stability; assay type: in vitro ADME; settings: for % Metabolism in 30 min: 0.5 µM, 0.5 mg/mL protein; for half-life at 0.5 µM / microsomal CLint at 0.5 µM: pH 7.4
Protocol: S2. ADME and PK Profiling
S2.1. In vitro Metabolic Stability Study […]
metabolic stability of AQQ1 and AQQ2. A final protein (liver microsomal) concentration of 0.5 mg/mL and final test substance (AQQ1 and AQQ2) concentration of 0.5 µM were used for the study. To the respective microsomes at a volume of 12.5 µL in the well, 2.5 µL of test substance ([…] in acetonitrile: dimethyl sulfoxide, 96:4) in the presence and absence of NADPH (50 µL, 10 mM) were added and the final volume made up to 500 µL with sodium phosphate buffer (50 mM, pH 7.4). The one without NADPH served as control. Sampling (50 µL) were done at the following time points: 0, 5, 10, 15, and 30 min for sample and at 0 and 30 min for control.
Acetonitrile (150 µL) was used as quenching solvent, internal standard (Rolipram) was added, vortexed/centrifuged and the aliquot from the supernatant was analyzed using LC-MS/MS. All the experiments were performed in duplicate.

M14 = assay: NCI-60 one-dose screen (melanoma); assay type: cell-based, human; settings: 10 µM single dose, 48 h
RXF 393 = assay: NCI-60 one-dose screen (renal cancer); assay type: cell-based, human; settings: 10 µM single dose, 48 h
CAKI-1 = assay: NCI-60 one-dose screen (renal cancer); assay type: cell-based, human; settings: 10 µM single dose, 48 h

Compound	logD [1]	colony-forming ability (DU-145 cells [2])	population of cells in the G0/G1 phase (DU-145 cells [3])	inhibition at 1 µM (DU-145 cells [4]; 1 μM)	inhibition at 2.5 µM (DU-145 cells [4]; 2.5 μM)	inhibition at 5 µM (DU-145 cells [4]; 5 μM)	intracellular ROS levels (DU-145 cells [5])	live and necrotic cell counts (DU-145 cells [6])	% Metabolism in 30 min ([7]; Human liver microsomes)	% Metabolism in 30 min ([7]; Mouse liver microsomes)	half-life at 0.5 µM ([7]; Human liver microsomes)	microsomal CLint at 0.5 µM ([7]; Human liver microsomes)	half-life at 0.5 µM ([7]; Mouse liver microsomes)	microsomal CLint at 0.5 µM ([7]; Mouse liver microsomes)	GP (growth percentage) (M14)	GP (growth percentage) (RXF 393)	GP (growth percentage) (CAKI-1)
COc1ccccc1NC1=C(Cl)C(=O)c2nc(C)ccc2C1=O [AQQ1]	2.37	significantly reduced the colony-forming ability	significantly increased the population of cells in the G0/G1 phase	13.4%	23.7%	49.8%	significantly increased ROS levels dose-dependently	reduced live cell counts and increased necrotic cells	39.5%	63%	> 30 min	39 µL/min/mg	20.5 min	68.5 µL/min/mg	–	–	–
COc1cc(NC2=C(Cl)C(=O)c3nc(C)ccc3C2=O)cc(OC)c1 [AQQ5]	–	–	–	–	–	–	–	–	–	–	–	–	–	–	−95.99%	−97.24%	−96.53%
CCOc1ccccc1NC1=C(Cl)C(=O)c2nc(C)ccc2C1=O [AQQ2]	2.35	–	–	–	–	–	–	–	47%	96.5%	26.5 min	52 µL/min/mg	5.5 min	249 µL/min/mg	–	–	–
